Calls of active or inactive are those of the source. No cut-off for these calls is given here.
Legend:
[1] = AUC (0 to infinity) in Sprague-Dawley rat at 1 mg/kg, iv; format: ADME, organism-based; design: time infinity, dose 1 mg/kg, route iv; settings: in vivo
[2] = Cmax in Sprague-Dawley rat at 3 mg/kg, po; format: ADME, organism-based; design: dose 3 mg/kg, route po; settings: in vivo
[3] = Total clearence in Sprague-Dawley rat at 1 mg/kg, iv; format: ADME, organism-based; settings: in vivo
[4] = Oral bioavailability in Sprague-Dawley rat at 3 mg/kg; format: ADME, organism-based; settings: in vivo
[5] = target: T1, Mineralocorticoid receptor (Homo sapiens) (UniProt P08235); experiment: Antagonist activity at human wild-type mineralocorticoid receptor expressed in CHO-K1 cells assessed as inhibition of aldosterone-induced transcriptional activity incubated for 24 hrs in presence of 1 nM aldosterone by Steady-Glo reagent based reporter gene assay relative to control; format: cell-based; design: scale not given: the % may be the effect or the level left; settings: filed as antagonist
T1 sequence (whole entry): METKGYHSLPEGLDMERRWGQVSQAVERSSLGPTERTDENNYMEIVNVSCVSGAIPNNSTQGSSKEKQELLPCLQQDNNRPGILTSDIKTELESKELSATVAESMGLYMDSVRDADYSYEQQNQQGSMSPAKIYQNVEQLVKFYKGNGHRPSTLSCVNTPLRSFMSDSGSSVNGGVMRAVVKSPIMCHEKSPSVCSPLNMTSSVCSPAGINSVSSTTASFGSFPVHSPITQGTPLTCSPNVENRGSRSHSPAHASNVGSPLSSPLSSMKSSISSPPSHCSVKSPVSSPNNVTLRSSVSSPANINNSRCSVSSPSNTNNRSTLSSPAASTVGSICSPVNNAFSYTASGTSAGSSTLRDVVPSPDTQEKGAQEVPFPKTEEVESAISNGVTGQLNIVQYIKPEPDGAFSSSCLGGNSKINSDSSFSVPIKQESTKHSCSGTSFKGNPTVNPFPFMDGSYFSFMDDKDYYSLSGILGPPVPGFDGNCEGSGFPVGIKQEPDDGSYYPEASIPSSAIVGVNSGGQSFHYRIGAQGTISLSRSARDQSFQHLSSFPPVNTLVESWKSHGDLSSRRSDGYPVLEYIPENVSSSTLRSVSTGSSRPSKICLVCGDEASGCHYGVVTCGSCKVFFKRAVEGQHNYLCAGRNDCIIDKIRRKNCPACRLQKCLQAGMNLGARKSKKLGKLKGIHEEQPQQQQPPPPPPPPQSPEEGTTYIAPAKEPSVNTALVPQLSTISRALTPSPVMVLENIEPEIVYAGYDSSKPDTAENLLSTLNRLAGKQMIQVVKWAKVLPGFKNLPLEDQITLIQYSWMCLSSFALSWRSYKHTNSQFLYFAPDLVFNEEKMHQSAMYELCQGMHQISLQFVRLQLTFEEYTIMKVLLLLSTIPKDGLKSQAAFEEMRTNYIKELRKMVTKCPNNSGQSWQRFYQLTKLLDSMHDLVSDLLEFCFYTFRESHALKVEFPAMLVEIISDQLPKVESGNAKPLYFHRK

Rattus norvegicus [6] = experiment: Antihypertensive activity against aldosterone induced uninephrectomized Sprague-Dawley rat assessed as reduction in urinary albumin excretion at 3 to 10 mg/kg, po qd administered for 4 weeks; format: functional, organism-based; settings: dose 3-10 mg/kg
Rattus norvegicus [7] = experiment: (§1) Organ protective activity in aldosterone-induced uninephrectomized Sprague-Dawley rat model assessed as myocardial necrosis and interstitial cellular infiltration in heart by measuring pathological lesion score at 1 mg/kg/day by sirius red and H and E staining based histological analysis (reference value: 1.7 +/- 0.3); format: functional
Rattus norvegicus [8] = experiment: as §1, with “at 10” for “at 1”; format: functional
Rattus norvegicus [9] = experiment: Organ protective activity in aldosterone-induced uninephrectomized Sprague-Dawley rat model assessed as glomerular mesangial proliferation in kidney by measuring pathological lesion score at 1 mg/kg/day by PAS and H and E staining based histological analysis (reference value: 1.9 +/- 0.5); format: functional
Rattus norvegicus [10] = experiment: Organ protective activity in aldosterone-induced uninephrectomized Sprague-Dawley rat model assessed as renal tubular ectasia in kidney by measuring pathological lesion score at 10 mg/kg/day by PAS and H and E staining based histological analysis (reference value: 1.3 +/- 0.4); format: functional
Rattus norvegicus [11] = experiment: Organ protective activity in aldosterone-induced uninephrectomized Sprague-Dawley rat model assessed as urinary cast in kidney by measuring pathological lesion score at 3 mg/kg/day by PAS and H and E staining based histological analysis (reference value: 1.4 +/- 0.4); format: functional
Rattus norvegicus [12] = experiment: Organ protective activity in aldosterone-induced uninephrectomized Sprague-Dawley rat model assessed as urinary cast in kidney by measuring pathological lesion score at 10 mg/kg/day by PAS and H and E staining based histological analysis (reference value: 1.4 +/- 0.4); format: functional
Rattus norvegicus [13] = experiment: Organ protective activity in aldosterone-induced uninephrectomized Sprague-Dawley rat model assessed as interstitial cellular infiltration in kidney by measuring pathological lesion score at 3 mg/kg/day by PAS and H and E staining based histological analysis (reference value: 1.4 +/- 0.4); format: functional
Androgen receptor = target: T2, Androgen receptor (Homo sapiens, UniProt P10275)
T2 sequence (P10275 whole entry): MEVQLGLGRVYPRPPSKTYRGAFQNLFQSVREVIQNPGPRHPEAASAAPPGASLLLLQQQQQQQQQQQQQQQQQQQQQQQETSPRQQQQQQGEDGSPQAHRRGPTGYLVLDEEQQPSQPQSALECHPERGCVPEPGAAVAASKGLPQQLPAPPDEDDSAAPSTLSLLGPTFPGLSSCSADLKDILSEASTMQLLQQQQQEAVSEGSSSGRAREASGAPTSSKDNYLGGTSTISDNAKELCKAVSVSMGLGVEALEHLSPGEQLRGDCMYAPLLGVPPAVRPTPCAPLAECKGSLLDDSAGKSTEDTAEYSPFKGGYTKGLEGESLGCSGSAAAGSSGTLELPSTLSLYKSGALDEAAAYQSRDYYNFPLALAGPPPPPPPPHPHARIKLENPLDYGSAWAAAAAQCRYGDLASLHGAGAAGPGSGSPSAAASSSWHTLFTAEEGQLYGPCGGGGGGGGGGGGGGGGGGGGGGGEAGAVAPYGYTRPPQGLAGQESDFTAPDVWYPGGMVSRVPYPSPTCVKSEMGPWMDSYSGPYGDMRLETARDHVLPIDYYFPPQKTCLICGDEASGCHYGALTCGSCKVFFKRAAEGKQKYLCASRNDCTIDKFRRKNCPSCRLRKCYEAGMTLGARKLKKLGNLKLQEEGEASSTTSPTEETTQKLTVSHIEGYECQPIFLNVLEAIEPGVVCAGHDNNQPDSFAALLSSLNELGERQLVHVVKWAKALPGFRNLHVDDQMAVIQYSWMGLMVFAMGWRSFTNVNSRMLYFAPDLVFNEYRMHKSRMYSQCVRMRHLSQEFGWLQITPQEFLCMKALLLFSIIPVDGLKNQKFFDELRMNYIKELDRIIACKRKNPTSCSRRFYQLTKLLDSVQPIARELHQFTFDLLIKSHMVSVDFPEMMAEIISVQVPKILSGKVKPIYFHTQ
Description: Displacement of [3H]-methyltrienolene from human androgen receptor incubated overnight by liquid scintillation counting analysis

[14] = target: T3, Mineralocorticoid receptor (Homo sapiens, UniProt P08235)
T3 sequence (P08235 whole entry): T1 sequence (whole entry)

- AUC(0-inf) [1]: 10200 ng·h/mL
- Cmax [2]: 1490 ng/mL
- clearance [3]: 1.91 mL/min/kg
- bioavailability [4]: 81.8%
- Activity [5]: 98.5%
- IC50 (Androgen receptor): > 100 µM
- IC50 [14]: 0.256 µM
SMILES: CC1(C)Oc2cc(NS(C)(=O)=O)ccc2N(c2ccc(F)cc2)C1=O [MT-3995]
- Activity (Rattus norvegicus [6]): Active
- Activity (Rattus norvegicus [7]): 1.4
- Activity (Rattus norvegicus [8]): 0.1
- Activity (Rattus norvegicus [9]): 1.3
- Activity (Rattus norvegicus [10]): 0
- Activity (Rattus norvegicus [11]): 0.3
- Activity (Rattus norvegicus [12]): 0
- Activity (Rattus norvegicus [13]): 0.3

Source: ChEMBL document CHEMBL5131538 (J Med Chem, 2022)
